PMC7865555, “Mechanistic Studies of the Antiallergic Activity of Phyllanthus amarus Schum. & Thonn. and Its Compounds” (Molecules, 2021)
Where “and” joins values, the source holds several entries; their conditions need not be identical. Equal values may be shown once.

System: not listed separately
Test: Cell viability (MTT) assay on RBL-2H3 cells
Assay type: cell-based, rat
Settings: rat, RBL-2H3 cells; RBL-2H3, 2.5 µg/mL
Experimental: (§1) RBL-2H3 cells were obtained from the Japanese Collection of Research Bioresources (JCRB) cell bank with a cell number of JCRB0023. The cells were cultured in enriched media (MEM containing 10% FBS and 1% penicillin-streptomycin (10 000 U/mL)). Once the cells reaching passage 3 (P3) with 80% confluency and showing stable growth and morphology, the cells were used for the bioassays. Only cells from passage 3 (P3) to passage 5 (P5) were used for the bioassays’ studies.
(§2) The cell viability assay was conducted as reported by Shahari, et al.. RBL-2H3 cells were seeded in 96-well plates in 100 µL at the concentration of 5 × 10^5 /mL. […] The cells were incubated for 4 h. 10 µL of MTT (5 mg/mL in PBS buffer) was added to the mixture and was incubated for 4 h at 37 °C. Upon the appearance of purple formazan crystal, the media was removed and 100 µL of DMSO was added to the well plates to dissolve the crystal. After 10 min of shaking the well plates on a shaker, the absorbance was immediately measured using a microplate reader at 570 nm.
Compound `COC[C@H](Cc1ccc(OC)c(OC)c1)[C@H](COC)Cc1cc(OC)c2c(c1)OCO2` [Niranthin (3), niranthin] has a viability at 4 h, 2.5 µg/mL of 104 ± 5.79%.
Work on `COC[C@@H](Cc1ccc(OC)c(OC)c1)[C@@H](COC)Cc1ccc(OC)c(OC)c1` [Phyllanthin (1), phyllanthin] yielded a viability at 4 h, 2.5 µg/mL of 92 ± 1.13%.

Same assay, conditions: rat, RBL-2H3 cells; RBL-2H3, 5 µg/mL
Work on `COC[C@H](Cc1ccc(OC)c(OC)c1)[C@H](COC)Cc1cc(OC)c2c(c1)OCO2` [Niranthin (3), niranthin] yielded a viability at 4 h, 5 µg/mL of 79.4 ± 8.96%.
Work on `COC[C@@H](Cc1ccc(OC)c(OC)c1)[C@@H](COC)Cc1ccc(OC)c(OC)c1` [Phyllanthin (1), phyllanthin] yielded a viability at 4 h, 5 µg/mL of 76.6 ± 3.77%.

Same assay, conditions: rat, RBL-2H3 cells; RBL-2H3, 10 µg/mL
`COC[C@H](Cc1ccc(OC)c(OC)c1)[C@H](COC)Cc1cc(OC)c2c(c1)OCO2` [Niranthin (3), niranthin] showed a viability at 4 h, 10 µg/mL of 96.5 ± 7.33%.
For `COC[C@@H](Cc1ccc(OC)c(OC)c1)[C@@H](COC)Cc1ccc(OC)c(OC)c1` [Phyllanthin (1), phyllanthin], the viability at 4 h, 10 µg/mL was 84.3 ± 6.83%.

Same assay, conditions: rat, RBL-2H3 cells; RBL-2H3, 25 µg/mL
With `COC[C@H](Cc1ccc(OC)c(OC)c1)[C@H](COC)Cc1cc(OC)c2c(c1)OCO2` [Niranthin (3), niranthin] the viability at 4 h, 25 µg/mL was 85.4 ± 11.6%.
`COC[C@@H](Cc1ccc(OC)c(OC)c1)[C@@H](COC)Cc1ccc(OC)c(OC)c1` [Phyllanthin (1), phyllanthin] gave a viability at 4 h, 25 µg/mL of 82.1 ± 4.03%.

Same assay, conditions: rat, RBL-2H3 cells; RBL-2H3, 50 µg/mL
`COC[C@H](Cc1ccc(OC)c(OC)c1)[C@H](COC)Cc1cc(OC)c2c(c1)OCO2` [Niranthin (3), niranthin] showed a viability at 4 h, 50 µg/mL of 96.63 ± 0.63%.
With `COC[C@@H](Cc1ccc(OC)c(OC)c1)[C@@H](COC)Cc1ccc(OC)c(OC)c1` [Phyllanthin (1), phyllanthin] the viability at 4 h, 50 µg/mL was 74.2 ± 7.99%.

Same assay, conditions: rat, RBL-2H3 cells; RBL-2H3, 100 µg/mL
For `COC[C@H](Cc1ccc(OC)c(OC)c1)[C@H](COC)Cc1cc(OC)c2c(c1)OCO2` [Niranthin (3), niranthin], the viability at 4 h, 100 µg/mL was 86.3 ± 12.4%.
For `COC[C@@H](Cc1ccc(OC)c(OC)c1)[C@@H](COC)Cc1ccc(OC)c(OC)c1` [Phyllanthin (1), phyllanthin], the viability at 4 h, 100 µg/mL was 53.5 ± 0.65%.

System: RBL-2H3 cell line
Test: Cell viability (MTT) assay on RBL-2H3 cells
Assay type: cell-based, rat
Settings: RBL-2H3, all concentrations tested
Experimental: as §1, §2
In the case of `COC[C@H](Cc1ccc(OC)c(OC)c1)[C@H](COC)Cc1cc(OC)c2c(c1)OCO2` [Niranthin (3), niranthin], the “Toxicity towards the cell (in words)” value is reported as “not toxic towards the cell”.

Same assay, conditions: RBL-2H3, maintaining approximately 70% cell viability
With `COC[C@@H](Cc1ccc(OC)c(OC)c1)[C@@H](COC)Cc1ccc(OC)c(OC)c1` [Phyllanthin (1), phyllanthin] the “Concentration safe on the cell” value was “below 50 µg/mL”.

System: beta-hexosaminidase release from RBL-2H3
Test: Inhibitory effect on beta-hexosaminidase release from RBL-2H3 (IgE/DNP-BSA)
Assay type: cell-based, rat
Settings: not given
Experimental: The bioassay was conducted as reported by Abd Rani, et al.. In the concentration of 2 × 10^5 cells in 400 µL per well, RBL-2H3 cells were seeded and incubated for 2 h. After 2 h, the cells were sensitized with anti-DNP IgE at a concentration of 0.45 µg/mL in 100 µL per well. The cells were incubated overnight until 80% confluent. The cells were washed with 500 µL Siraganian buffer (119 mM of sodium chloride (NaCl), 5 mM of potassium chloride (KCl), 5.6 mM of glucose, 0.4 mM of magnesium chloride (MgCl2), 1 mM of calcium chloride (CaCl2), 25 mM of piperazine-N,N′-bis(2-ethanesulfonic acid) (PIPES), 40 mM of sodium hydroxide (NaOH), 0.1% BSA; pH 7.2) twice before were added with 160 µL of Siraganian buffer and incubated for 10 min. The cells were then treated with different concentrations of test samples in 20 µL. After 10 min of incubation, allergen, DNP-BSA at a concentration of 10 mg/mL were added to the cells. The cells were incubated for another 30 min. The supernatant (50 µL) was transferred into 96-well plates and was added immediately with 50 µL of the substrate ([…] p-nitrophenyl-N-acetyl-β-D-glucosaminide in 0.1 M citrate buffer, pH 4.5). The cells were further incubated for 1 h and the reaction was stopped using a 200 µL stop solution (0.1 M Na2CO3/NaHCO3, pH 10.0). The absorbance was measured using the microplate reader at 405 nm. The percentage of inhibition was measured using Equation (1). Control cell was assumed to have 100% beta-hexosaminidase release with allergen added without any treatment while the normal cell was assumed to have 0% beta-hexosaminidase release with cell without any allergen and treatment added to the well. The blank well consisted of the test sample. Ketotifen fumarate was used as a positive control. (1) Percentage inhibition % = (1− OD test sample−OD blank−OD normal/OD control−OD normal) × 100
For `COC[C@H](Cc1ccc(OC)c(OC)c1)[C@H](COC)Cc1cc(OC)c2c(c1)OCO2` [Niranthin (3), niranthin], the “Inhibition of beta-hexosaminidase release (in words)” value was “inhibited the release of beta-hexosaminidase”.
With `COC[C@@H](Cc1ccc(OC)c(OC)c1)[C@@H](COC)Cc1ccc(OC)c(OC)c1` [Phyllanthin (1), phyllanthin] the “Inhibition of beta-hexosaminidase release (in words)” value was “inhibited the release of beta-hexosaminidase”.

Same assay, conditions: Rattus norvegicus, 2.5 µg/mL, mean ± SEM, n = 3, read-out: Inhibitory activity towards beta-hexosaminidase release
In the case of `COC[C@@H](Cc1ccc(OC)c(OC)c1)[C@@H](COC)Cc1ccc(OC)c(OC)c1` [Phyllanthin (1), phyllanthin], the inhibition at 2.5 µg/mL is reported as 26.4 ± 3.18%.

Same assay, conditions: Rattus norvegicus, 5 µg/mL, mean ± SEM, n = 3, read-out: Inhibitory activity towards beta-hexosaminidase release
For `COC[C@@H](Cc1ccc(OC)c(OC)c1)[C@@H](COC)Cc1ccc(OC)c(OC)c1` [Phyllanthin (1), phyllanthin], the inhibition at 5 µg/mL was 37.9 ± 6.51%.

Same assay, conditions: Rattus norvegicus, 10 µg/mL, mean ± SEM, n = 3, read-out: Inhibitory activity towards beta-hexosaminidase release
For `COC[C@H](Cc1ccc(OC)c(OC)c1)[C@H](COC)Cc1cc(OC)c2c(c1)OCO2` [Niranthin (3), niranthin], the inhibition at 10 µg/mL was 29.3 ± 5.81%.
For `COC[C@@H](Cc1ccc(OC)c(OC)c1)[C@@H](COC)Cc1ccc(OC)c(OC)c1` [Phyllanthin (1), phyllanthin], the inhibition at 10 µg/mL was 38.4 ± 8.72%.

Same assay, conditions: Rattus norvegicus, 25 µg/mL, mean ± SEM, n = 3, read-out: Inhibitory activity towards beta-hexosaminidase release
With `COC[C@H](Cc1ccc(OC)c(OC)c1)[C@H](COC)Cc1cc(OC)c2c(c1)OCO2` [Niranthin (3), niranthin] the inhibition at 25 µg/mL was 31.3 ± 7.43%.

Same assay, conditions: Rattus norvegicus, 50 µg/mL, mean ± SEM, n = 3, read-out: Inhibitory activity towards beta-hexosaminidase release
With `COC[C@H](Cc1ccc(OC)c(OC)c1)[C@H](COC)Cc1cc(OC)c2c(c1)OCO2` [Niranthin (3), niranthin] the inhibition at 50 µg/mL was 32.1 ± 7.27%.

System: histamine release from RBL-2H3
Test: Inhibitory effect on histamine release from RBL-2H3 (ELISA)
Assay type: cell-based
Settings: Rattus norvegicus, 2.5 µg/mL, mean ± SEM, n = 3, read-out: Inhibitory activity towards histamine release
Experimental: The bioassay was conducted as reported by Shahari, et al. and Abd Rani, et al.. In 24-well plates, 2 × 10^5 of RBL-2H3 cells were seeded in 400 µL per well. The cells were sensitized with 0.45 µg/mL anti-DNP IgE in 100 µL after two hours of incubation. The cells were incubated overnight until reaching 80% confluency. The cells were washed twice with 500 µL of enriched media before being constituted with 320 µL enriched media. After 10 min of incubation, the cells were treated with 40 µL of different concentration of test compounds and was incubated for another 10 min. The cells were treated with 20 µL of allergen, DNP-BSA (10 mg/mL), and further being incubated for another 30 min. The supernatant obtained was transferred into a microcentrifuge tube, and centrifuged for 20 min at 1000× g at 8 °C. The supernatant was transferred to the Histamine ELISA kit and the histamine quantification was conducted based on the ELISA manufacturer protocol given. The percentage of inhibition was measured using Equation (2). The control cell was assumed to have 100% histamine release with allergen added without any treatment while blank well corresponded to 0% cytokine release. Ketotifen fumarate was used as a positive control. (2) Percentage inhibition % = (1− OD test sample−OD blank/OD control−OD blank) × 100
Compound `COC[C@@H](Cc1ccc(OC)c(OC)c1)[C@@H](COC)Cc1ccc(OC)c(OC)c1` [Phyllanthin (1), phyllanthin] has an inhibition at 2.5 µg/mL of -3.05 ± 7.93%.

Same assay, conditions: Rattus norvegicus, 5 µg/mL, mean ± SEM, n = 3, read-out: Inhibitory activity towards histamine release
In the case of `COC[C@H](Cc1ccc(OC)c(OC)c1)[C@H](COC)Cc1cc(OC)c2c(c1)OCO2` [Niranthin (3), niranthin], the inhibition at 5 µg/mL is reported as 34.7 ± 12.2%.
With `COC[C@@H](Cc1ccc(OC)c(OC)c1)[C@@H](COC)Cc1ccc(OC)c(OC)c1` [Phyllanthin (1), phyllanthin] the inhibition at 5 µg/mL was 55.8 ± 19.3%.

Same assay, conditions: Rattus norvegicus, 10 µg/mL, mean ± SEM, n = 3, read-out: Inhibitory activity towards histamine release
Compound `COC[C@H](Cc1ccc(OC)c(OC)c1)[C@H](COC)Cc1cc(OC)c2c(c1)OCO2` [Niranthin (3), niranthin] has an inhibition at 10 µg/mL of 59 ± 22.2%.
Work on `COC[C@@H](Cc1ccc(OC)c(OC)c1)[C@@H](COC)Cc1ccc(OC)c(OC)c1` [Phyllanthin (1), phyllanthin] yielded an inhibition at 10 µg/mL of -11.6 ± 70.8%.

Same assay, conditions: Rattus norvegicus, 25 µg/mL, mean ± SEM, n = 3, read-out: Inhibitory activity towards histamine release
`COC[C@H](Cc1ccc(OC)c(OC)c1)[C@H](COC)Cc1cc(OC)c2c(c1)OCO2` [Niranthin (3), niranthin] showed an inhibition at 25 µg/mL of 41.2 ± 31.2%.

Target: T1, Histamine H1 (human) membrane preparation, in CHO-K1 cells (Homo sapiens, UniProt P35367)
T1 construct: purchased Perkin Elmer (Waltham, MA, USA); host or cells: CHO-K1 cells (recombinant expression, membrane preparation)
T1 sequence (P35367 whole entry): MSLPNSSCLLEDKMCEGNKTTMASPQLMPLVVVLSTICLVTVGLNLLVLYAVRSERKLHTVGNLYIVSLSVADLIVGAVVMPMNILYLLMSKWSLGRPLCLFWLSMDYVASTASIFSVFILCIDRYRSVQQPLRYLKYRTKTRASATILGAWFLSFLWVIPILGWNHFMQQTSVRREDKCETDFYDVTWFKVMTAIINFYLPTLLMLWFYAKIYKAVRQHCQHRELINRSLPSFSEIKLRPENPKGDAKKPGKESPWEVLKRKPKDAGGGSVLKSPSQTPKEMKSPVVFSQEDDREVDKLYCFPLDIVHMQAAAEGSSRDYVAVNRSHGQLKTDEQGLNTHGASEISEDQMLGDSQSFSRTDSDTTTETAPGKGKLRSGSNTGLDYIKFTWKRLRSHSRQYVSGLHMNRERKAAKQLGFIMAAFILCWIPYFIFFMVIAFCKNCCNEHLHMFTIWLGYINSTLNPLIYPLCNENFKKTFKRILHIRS
Test: Radioligand competition binding assay (3H-mepyramine)
Settings: pH 7.4, 1 h incubation, 3H-mepyramine; read-out: Radioassay (Ki)
Experimental: In determining the affinity of the ligands toward the receptor, competition radioligand binding was conducted. The assay was conducted by measuring the competition binding between a radioligand with a ligand. The concentration of the radioligand with the presence of the ligand and the receptor was determined by using a liquid scintillation counter. […] The Ki value which also known as the binding affinity of the ligand was determined using GraphPad Prism.
Pyrilamine (Mepyramine), [pyridinyl 5-3H], Membrane Target Systems: Histamine H1 (human) membrane preparation, in CHO-K1 cells, liquid scintillation cocktail (ULTIMA GOLD MV), pico pro vial, and glass fiber (GF) filter were obtained from Perkin Elmer (Waltham, MA, USA).
In preparation for bioassay analysis, 10 mg of test samples were dissolved in 1 mL of DMSO and were treated as the stock sample. […] The working test sample together with its stock sample were kept in 4 °C until further used.
The radioligand assay was conducted as reported by Strakhova and Esbenshade. […] The mixture was immediately added with 200 µL of histamine receptor membrane (5 µg protein/well). The mixture was incubated for an hour at room temperature while shaking on the shaker. After an hour incubation, the mixture was harvested on GF/B uni filter presoaked with 0.5% PEI for 3 min. The GF/B uni filter was rinsed a few times with a wash buffer before being dried for one and a half hours. Once the uni filter was dry, the punched filter was transferred to 4 mL pico pro vial and was soaked with 2 mL of liquid scintillation cocktail. The solution was vortexed for a few seconds before being quantified using the liquid scintillator. Ki value (nmol/L) was obtained by using Equation (3).
For `COC[C@H](Cc1ccc(OC)c(OC)c1)[C@H](COC)Cc1cc(OC)c2c(c1)OCO2` [Niranthin (3), niranthin], the Ki was 0.44 nM and 0.444 nM.
